Biological target: T1, c-Met kinase (recombinant c-Met) (Homo sapiens, UniProt P08581)
T1 construct: 0.27 nM recombinant c-Met
Assay: In vitro kinase assay I (homogeneous time-resolved fluorescence tyrosine kinase assay)
Assay type: biochemical
Procedure, shortened: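 Biotinylated peptide (0.5 μM) phosphorylated by 0.2 nM recombinant c-Met with 50 μM MgATP, 60 min at room temperature, pH 7.4, 5% DMSO. EDTA stop; HTRF read with Eu-anti-phosphotyrosine antibody and streptavidin-APC. IC50 from 4-parameter logistic fit.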

T1 sequence (P08581 25-1390): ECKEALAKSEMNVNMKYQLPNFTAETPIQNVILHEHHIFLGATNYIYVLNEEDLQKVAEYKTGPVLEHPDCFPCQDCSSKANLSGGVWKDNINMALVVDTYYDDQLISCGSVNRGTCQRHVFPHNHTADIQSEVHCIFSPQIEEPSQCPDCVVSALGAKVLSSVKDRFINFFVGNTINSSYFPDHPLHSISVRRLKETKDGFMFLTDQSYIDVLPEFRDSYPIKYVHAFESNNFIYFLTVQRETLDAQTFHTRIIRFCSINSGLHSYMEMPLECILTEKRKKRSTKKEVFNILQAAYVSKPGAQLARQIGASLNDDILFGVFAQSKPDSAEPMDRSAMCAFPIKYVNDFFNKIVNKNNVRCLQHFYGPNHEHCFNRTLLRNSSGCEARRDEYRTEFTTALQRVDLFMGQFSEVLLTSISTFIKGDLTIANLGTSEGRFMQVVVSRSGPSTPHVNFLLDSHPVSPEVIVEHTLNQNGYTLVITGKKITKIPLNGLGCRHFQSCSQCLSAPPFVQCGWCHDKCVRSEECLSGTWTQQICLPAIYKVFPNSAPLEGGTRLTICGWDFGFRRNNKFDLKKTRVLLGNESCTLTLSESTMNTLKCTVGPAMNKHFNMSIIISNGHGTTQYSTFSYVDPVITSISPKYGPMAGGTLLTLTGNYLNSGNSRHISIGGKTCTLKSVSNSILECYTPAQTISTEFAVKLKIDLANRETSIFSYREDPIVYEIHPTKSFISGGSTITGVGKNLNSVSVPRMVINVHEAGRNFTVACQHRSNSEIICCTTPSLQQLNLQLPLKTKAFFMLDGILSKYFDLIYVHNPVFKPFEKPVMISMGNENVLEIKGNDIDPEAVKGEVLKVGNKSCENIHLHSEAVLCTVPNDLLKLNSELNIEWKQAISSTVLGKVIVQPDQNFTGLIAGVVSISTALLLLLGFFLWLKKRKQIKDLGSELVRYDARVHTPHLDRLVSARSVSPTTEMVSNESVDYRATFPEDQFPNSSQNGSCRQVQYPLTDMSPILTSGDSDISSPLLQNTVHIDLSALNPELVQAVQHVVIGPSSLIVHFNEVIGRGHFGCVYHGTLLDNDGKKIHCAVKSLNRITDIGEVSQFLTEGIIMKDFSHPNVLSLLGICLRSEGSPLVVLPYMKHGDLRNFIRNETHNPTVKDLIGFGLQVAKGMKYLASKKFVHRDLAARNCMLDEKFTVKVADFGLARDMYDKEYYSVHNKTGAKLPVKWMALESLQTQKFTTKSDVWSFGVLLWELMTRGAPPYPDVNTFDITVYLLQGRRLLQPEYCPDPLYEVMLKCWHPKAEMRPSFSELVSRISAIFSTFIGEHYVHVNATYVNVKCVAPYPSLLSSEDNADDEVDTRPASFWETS

## Cn1cc(-n2ccc(=O)c(Cc3cccc(-c4ncc(OC(F)F)cn4)c3)n2)cn1 [Example 386, 3-{3-[5-(Difluoromethoxy)pyrimidin-2-yl]benzyl}-1-(1-methyl-1H-pyrazol-4-yl)pyridazin-4(1H)-one]
  IC50: < 100 nM

## Cn1cc(-n2ccc(=O)c(Cc3cccc(-c4ncc(OCC5(CF)COC5)cn4)c3)n2)cn1 [Example 387, 3-[3-(5-{[3-(Fluoromethyl)oxetan-3-yl]methoxy}pyrimidin-2-yl)benzyl]-1-(1-methyl-1H-pyrazol-4-yl)pyridazin-4(1H)-one]
  IC50: < 100 nM

## Cn1cc(-n2ccc(=O)c(Cc3cccc(-c4ncc(OCC5(F)CCOCC5)cn4)c3)n2)cn1 [Example 388, 3-(3-{5-[(4-fluorotetrahydro-2H-pyran-4-yl)methoxy]pyrimidin-2-yl}benzyl)-1-(1-methyl-1H-pyrazol-4-yl)pyridazin-4(1H)-one]
  IC50: < 100 nM

## CCc1cnc(-c2cccc(Cc3nn(-c4cnn(C)c4)ccc3=O)c2)nc1 [Example 391, 3-[3-(5-Ethylpyrimidin-2-yl)benzyl]-1-(1-methyl-1H-pyrazol-4-yl)pyridazin-4(1H)-one]
  IC50: < 100 nM

## CCCCc1cnc(-c2cccc(Cc3nn(-c4cnn(C)c4)ccc3=O)c2)nc1 [Example 392, 3-[3-(5-butylpyrimidin-2-yl)benzyl]-1-(1-methyl-1H-pyrazol-4-yl)pyridazin-4(1H)-one]
  IC50: < 100 nM

## Cn1cc(-n2ccc(=O)c(Cc3cccc(-c4ncc(C5CC5)cn4)c3)n2)cn1 [Example 393, 3-[3-(5-cyclopropyl-pyrimidin-2-yl)benzyl]-1-(1-methyl-1H-pyrazol-4-yl)pyridazin-4(1H)-one]
  IC50: < 100 nM

## CC(C)Cc1cnc(-c2cccc(Cc3nn(-c4cnn(C)c4)ccc3=O)c2)nc1 [Example 394, 3-{3-[5-(2-methylpropyl)pyrimidin-2-yl)benzyl}-1-(1-methyl-1H-pyrazol-4-yl)pyridazin-4(1H)-one]
  IC50: < 100 nM

## Cn1cc(-n2ccc(=O)c(Cc3cccc(-c4ncc(CCCO)cn4)c3)n2)cn1 [Example 395, 3-{3-[5-(3-hydroxypropyl)pyrimidin-2-yl]benzyl}-1-(1-methyl-1H-pyrazol-4-yl)pyridazin-4(1H)-one]
  IC50: < 100 nM

## Cn1cc(-n2ccc(=O)c(Cc3cccc(-c4ncc(Cc5ccccc5)cn4)c3)n2)cn1 [Example 396]
  IC50: < 100 nM

## Cn1cc(-n2ccc(=O)c(Cc3cccc(-c4ncc(CCc5ccccc5)cn4)c3)n2)cn1 [Example 397, 1-(1-methyl-1H-pyrazol-4-yl)-3-{3-[5-(2-phenylethyl)pyrimidin-2-yl]benzyl}pyridazin-4(1H)-one]
  IC50: < 100 nM

## Cn1cc(-n2ccc(=O)c(Cc3cccc(-c4ncc(CCc5ccccn5)cn4)c3)n2)cn1 [Example 398, 1-(1-methyl-1H-pyrazol-4-yl)-3-(3-{5-[2-(pyridin-2-yl)ethyl]pyrimidin-2-yl}benzyl)pyridazin-4(1H)-one]
  IC50: < 100 nM

## C=C(C)c1cnc(-c2cccc(Cc3nn(-c4cnn(C)c4)ccc3=O)c2)nc1 [Example 399, 1-(1-methyl-1H-pyrazol-4-yl)-3-{3-[5-(prop-1-en-2-yl)pyrimidin-2-yl]benzyl}pyridazin-4(1H)-one]
  IC50: < 100 nM

## C/C=C/c1cnc(-c2cccc(Cc3nn(-c4cnn(C)c4)ccc3=O)c2)nc1 [Example 400, 1-(1-methyl-1H-pyrazol-4-yl)-3-(3-{5-[(1E)-prop-1-en-1-yl]pyrimidin-2-yl}benzyl)pyridazin-4(1H)-one]
  IC50: < 100 nM

## Cn1cc(-n2ccc(=O)c(Cc3cccc(-c4ncc(/C=C/C(C)(C)O)cn4)c3)n2)cn1 [Example 401, 3-(3-{5-[(1E)-3-hydroxy-3-methylbut-1-en-1-yl]pyrimidin-2-yl}benzyl)-1-(1-methyl-1H-pyrazol-4-yl)pyridazin-4(1H)-one]
  IC50: < 100 nM

## COC/C=C/c1cnc(-c2cccc(Cc3nn(-c4cnn(C)c4)ccc3=O)c2)nc1 [Example 402, 3-(3-{5-[(1E)-3-methoxyprop-1-en-1-yl]pyrimidin-2-yl}benzyl)-1-(1-methyl-1H-pyrazol-4-yl)pyridazin-4(1H)-one]
  IC50: < 100 nM

## CN(C)C/C=C/c1cnc(-c2cccc(Cc3nn(-c4cnn(C)c4)ccc3=O)c2)nc1 [Example 403, 3-(3-{5-[(1E)-3-(dimethylamino)prop-1-en-1-yl]pyrimidin-2-yl}benzyl)-1-(1-methyl-1H-pyrazol-4-yl)pyridazin-4(1H)-one]
  IC50: < 100 nM

## Cn1cc(-n2ccc(=O)c(Cc3cccc(-c4ncc(-c5ccco5)cn4)c3)n2)cn1 [Example 404, 3-{3-[5-(furan-2-yl)pyrimidin-2-yl]benzyl}-1-(1-methyl-1H-pyrazol-4-yl)pyridazin-4(1H)-one]
  IC50: < 100 nM

## CCc1cnc(-c2cccc(Cc3nn(-c4ccc(F)c(F)c4)ccc3=O)c2)nc1 [Example 407, 1-(3,4-difluorophenyl)-3-[3-(5-ethylpyrimidin-2-yl)benzyl]pyridazin-4(1H)-one]
  IC50: < 100 nM

## Cn1cc(-n2ccc(=O)c(Cc3cccc(-c4ncc(-c5ccncc5)cn4)c3)n2)cn1 [Example 409, 1-(1-Methyl-1H-pyrazol-4-yl)-3-{3-[5-(pyridin-4-yl)pyrimidin-2-yl]benzyl}pyridazin-4(1H)-one]
  IC50: < 100 nM

## Cn1cc(-n2ccc(=O)c(Cc3cccc(-c4ncc(-c5cn[nH]c5)cn4)c3)n2)cn1 [Example 410, 1-(1-methyl-1H-pyrazol-4-yl)-3-{3-[5-(1H-pyrazol-4-yl)pyrimidin-2-yl]benzyl}pyridazin-4(1H)-one]
  IC50: < 100 nM

## Cn1cc(-n2ccc(=O)c(Cc3cccc(-c4ncc(-c5cncnc5)cn4)c3)n2)cn1 [Example 411, 3-[3-(5,5′-bipyrimidin-2-yl)benzyl]-1-(1-methyl-1H-pyrazol-4-yl)pyridazin-4(1H)-one]
  IC50: < 100 nM

## Cn1cc(-n2ccc(=O)c(Cc3cccc(-c4ncc(-c5cccnc5)cn4)c3)n2)cn1 [Example 412, 1-(1-methyl-1H-pyrazol-4-yl)-3-[3-(5-pyridin-3-ylpyrimidin-2-yl)benzyl]pyridazin-4(1H)-one]
  IC50: < 100 nM

## Cn1cc(-n2ccc(=O)c(Cc3cccc(-c4ncc(-c5ccc(C#N)nc5)cn4)c3)n2)cn1 [Example 413, 5-[2-(3-{[1-(1-methyl-1H-pyrazol-4-yl)-4-oxo-1,4-dihydropyrida-zin-3-yl]methyl}phenyl)pyrimidin-5-yl]pyridine-2-carbonitrile]
  IC50: < 100 nM

## Cn1cc(-n2ccc(=O)c(Cc3cccc(-c4ncc(-c5cncc(F)c5)cn4)c3)n2)cn1 [Example 414, 3-{3-[5-(5-fluoropyridin-3-yl)pyrimidin-2-yl]benzyl}-1-(1-methyl-1H-pyrazol-4-yl)pyridazin-4(1H)-one]
  IC50: < 100 nM

## Cc1cnccc1-c1cnc(-c2cccc(Cc3nn(-c4cnn(C)c4)ccc3=O)c2)nc1 [Example 416, 1-(1-methyl-1H-pyrazol-4-yl)-3-{3-[5-(3-methylpyridin-4-yl)pyrimidin-2-yl]benzyl}pyridazin-4(1H)-one]
  IC50: < 100 nM

## Cn1cc(-n2ccc(=O)c(Cc3cccc(-c4ncc(-c5cnc(N)nc5)cn4)c3)n2)cn1 [Example 417, 3-[3-(2′-amino-5,5′-bipyrimidin-2-yl)benzyl]-1-(1-methyl-1H-pyrazol-4-yl)pyridazin-4(1H)-one]
  IC50: < 100 nM

## Cn1cc(-n2ccc(=O)c(Cc3cccc(-c4ncc(-c5ccc(F)cn5)cn4)c3)n2)cn1 [Example 418, 3-{3-[5-(5-fluoropyridin-2-yl)pyrimidin-2-yl]benzyl}-1-(1-methyl-1H-pyrazol-4-yl)pyridazin-4(1H)-one]
  IC50: < 100 nM

— patent US20120264735A1 (priority 2009, published 2012)
